# From patent US6737058B2, “Methods for inhibiting endothelial cell and fibrinogen mediated inflammation using fibrinogen specific antibodies” (The Scripps Research Institute, priority 1992, dated 2004)
# Tested on: HUVEC
# Test: 125I-labelled fibrinogen binding to HUVEC monolayers, dose dependency
# Set-up: species or system human
# Conditions: monolayers of unstimulated HUVEC, 22° C., 45 minutes, 2.5 mM CaCl2
# Method: Fibrinogen was iodinated using the Iodogen™ method. Briefly, Iodogen™ was dissolved in dichloromethane for a final concentration of 1 μg/ml and 170 μl of dissolved Iodogen™ that was dried in the bottom of a glass tube. Fibrinogen, prepared in Example 1A, was resuspended in 0.055 M sodium citrate buffer, pH 7.4, for a final concentration of 5 μg/ml. Two hundred μl of dissolved fibrinogen solution was placed into the Iodogen™-coated tube with 700 μCi of carrier-free sodium iodide. The admixture was maintained on ice for 20 minutes with occasional agitation. To stop the iodination reaction, the admixture was removed from the tube and gel filtered on a […]™ G-25 coarse column (100×2.5). Fractions of iodinated fibrinogen were determined by trichloroacetic acid precipitable counts. The labelled fibrinogen produced was radiolabelled to a specific activity of 0.3 μCi/μg of protein. Labelled fibrinogen was used in the binding and inhibition of binding assays described herein at a concentration of 50 μg/ml whereas unlabelled fibrinogen was generally used at a concentration of 500 μg/ml. […]
# The resultant admixtures were maintained at 22° C. for 45 minutes to allow for fibrinogen to bind to the plated HUVEC. […] The cells were then solubilized in 10% SDS and the radioactivity associated under the maintenance conditions was quantitated in a gamma counter.
substance,measurement,value
"fibrinogen: fibrinogen isolated from fresh plasma by cold ethanol fractionation, fibronectin-free",concentration at which 125I-labelled fibrinogen binds saturably,approximately 0.36 μM
